Source: patent publication US20120214846A1, “HEXAHYDROCYCLOPENTYL[F]INDAZOLE PYRIDYL ETHANOLS AND DERIVATIVES THEREOF AS SELECTIVE GLUCOCORTICOID RECEPTOR MODULATORS” (MERCK SHARP & DOHME CORP, priority 2009, published 2012)

How the values were obtained:
[1] = system: female Sprague-Dawley rats, oxazolone (OX) contact dermatitis; assay: In Vivo Inflammation Assay (oxazolone contact dermatitis model); parameters: key to Inflammation Assay Glucose Effect / GL *: +: the glucose level increased compared to vehicle; −: the glucose level decreased compared to vehicle; details: Table 4, literature compounds
Experimental: In Vivo Inflammation Assay
Intact adult (6 month old) female Sprague-Dawley rats are used in the oxazolone (OX) contactdermatitis model. Rats were sensitized on the ventral abdomen with OX on Day 0. On Days 7 and 9, a randomly-selected ear was challenged (same ear each time) with OX; the other was treated with vehicle. Daily treatment begun on Day 7 and continued for 7d with test compounds at different doses and 1.3 mpk 6-methlyprednisolone or 0.1 mpk DEX as positive controls. The thickness of both ears are measured on Days 11 and 14. Necropsy occurred on Day 14. The rat is first weighed, then anesthetized in a CO2 chamber until near death. Approximately 5 ml whole blood is obtained by cardiac puncture. The rat is then examined for certain signs of death and completeness. Tissues are dissected in a highly stylized fashion. Then the following endpoints were evaluated: a) inhibiting ear inflammation induced by oxazalone, b) raising serum insulin, c) reducing serum ACTH, d) reducing spleen weight, e) reducing skin thickness, f) reducing body weight, g) increasing expression of bone-related genes with potential relationship to negative glucocorticoid effects on bone; e) changes in molecular markers that correlate with skin inflammation, skin thinning, muscle atrophy and glucose metabolism in liver. All blood samples were collected between 1330-1530 hours, ˜4-5 hrs after the last compound treatment.
Primary data for this assay are left and right ear thickness. Inter-ear thickness difference (etd) is used for the estimating the level of inflammation and effectiveness of the compounds is determined by their ability to reduce the increase the thickness of the inflamed ear. Back of the rat skin thickness, spleen weight, serum insulin as well as the effects of gcs on the expression of molecular markers in skin inflammation, skin atrophy, muscle atrophy and glucose metabolism in liver are measured. Data are analyzed by anova plus fisher plsd post-hoc test to identify intergroup differences.

Solubility at pH 2 = assay type: physicochemical; details: Table 4, literature compounds

With C[C@]12Cc3cnn(-c4ccc(F)cc4)c3C=C1CCC[C@@H]2[C@@H](O)c1ccc(F)cc1 [Ex. 32 WO 03/086294 A2, reference compound] the “AI*” value ([1]; anti-inflammatory effect) was “+ (the anti-inflammatory activity was equal to or greater than 40% of the effect generated by the control compound)”, the “GL *” value ([1]; glucose effect) was “+” and the solubility (Solubility at pH 2) was “poor”.
